What follows are compounds tested against full-length human LSD1 (Homo sapiens (Human), UniProt O60341) (assay: In vitro enzyme inhibition assay LSD-1 (TR-FRET)). Settings: H3K4me1-biotin peptide.
Format: biochemical
Protocol: This assay determines the ability of a test compound to inhibit LSD1 demethylase activity.
The enzymatic assay of LSD1 activity is based on Time Resolved-Fluorescence Resonance Energy Transfer (TR-FRET) detection.
The ability of the compounds disclosed herein to inhibit LSD1 activity was quantified and the respective IC50 value was determined.

Row | IC50 [nM] | Structure (SMILES)
1 | < 100 | Cn1c(N2CCC(N)CC2)nc(-c2ccc(C#N)cc2)c(-c2ccc(C(N)=O)c(F)c2)c1=O [Example 41, 4-[2-(4-aminopiperidyl)-6-(4-cyanophenyl)-3-methyl-4-oxo(3-hydropyrimidin-5-yl)]-2-fluorobenzamide]
2 | < 100 | Cn1c(N2CCC(N)CC2)nc(-c2ccc(C#N)c(F)c2)c(-c2ccc3c(c2)CNC3=O)c1=O [Example 42, 4-[2-(4-amino-piperidin-1-yl)-1-methyl-6-oxo-5-(1-oxo-2,3-dihydro-1H-isoindol-5-yl)-1,6-dihydro-pyrimidin-4-yl]-2-fluoro-benzonitrile]
3 | < 100 | COc1ccc(-c2c(-c3ccc(C#N)cc3)nc(NC[C@H]3CCNC3)n(C)c2=O)cc1F [Example 44, 4-{5-(3-fluoro-4-methoxy-phenyl)-1-methyl-6-oxo-2-[(3S)-(pyrrolidin-3-ylmethyl)-amino]-1,6-dihydro-pyrimidin-4-yl}-benzonitrile]
4 | < 100 | COc1ccc(-c2c(-c3ccc(C#N)cc3)nc(NC[C@@H]3CCNC3)n(C)c2=O)cc1F [Example 45, 4-{5-(3-fluoro-4-methoxy-phenyl)-1-methyl-6-oxo-2-[(3R)-(pyrrolidin-3-ylmethyl)-amino]-1,6-dihydro-pyrimidin-4-yl}-benzonitrile]
5 | < 100 | COc1ccc(-c2c(-c3ccc(C#N)c(F)c3)nc(N3CCCNCC3)n(C)c2=O)cc1F [Example 46, 4-[2-[1,4]diazepan-1-yl-5-(3-fluoro-4-methoxy-phenyl)-1-methyl-6-oxo-1,6-dihydro-pyrimidin-4-yl]-2-fluoro-benzonitrile]
6 | < 100 | COc1ccc(-c2c(-c3ccc(C#N)c(F)c3)nc(N3CCNCC3)n(C)c2=O)cc1F [Example 47, 2-fluoro-4-[5-(3-fluoro-4-methoxy-phenyl)-1-methyl-6-oxo-2-piperazin-1-yl-1,6-dihydro-pyrimidin-4-yl]-benzonitrile]
7 | < 100 | CN(C)c1ncc(-c2c(-c3ccc(C#N)c(F)c3)nc(N3CCC(N)CC3)n(C)c2=O)cn1 [Example 49, 4-[2-(4-amino-piperidin-1-yl)-2′-dimethylamino-1-methyl-6-oxo-1,6-dihydro-[5,5′]bipyrimidinyl-4-yl]-2-fluoro-benzonitrile]
8 | < 100 | CNC(=O)c1ccc(-c2c(-c3ccc(C#N)c(F)c3)nc(N3CCC(N)CC3)n(C)c2=O)cn1 [Example 50, 5-[2-(4-amino-piperidin-1-yl)-4-(4-cyano-3-fluoro-phenyl)-1-methyl-6-oxo-1,6-dihydro-pyrimidin-5-yl]-pyridine-2-carboxylic acid methylamide]
9 | < 100 | COc1ccc(-c2c(-c3ccc(C#N)c(F)c3)nc(NC[C@H]3CCNC3)n(C)c2=O)cc1 [Example 51, 2-fluoro-4-{5-(4-methoxy-phenyl)-1-methyl-6-oxo-2-[(3S)-(pyrrolidin-3-ylmethyl)-amino]-1,6-dihydro-pyrimidin-4-yl}-benzonitrile]
10 | < 100 | COc1ccc(-c2c(-c3ccc(C#N)c(F)c3)nc(NC[C@@H]3CCNC3)n(C)c2=O)cc1 [Example 52, 2-luoro-4-{5-(4-methoxy-phenyl)-1-methyl-6-oxo-2-[(3R)-(pyrrolidin-3-ylmethyl)-amino]-1,6-dihydro-pyrimidin-4-yl}-benzonitrile]
11 | < 100 | COc1ccc(-c2c(-c3ccc(C#N)c(F)c3)nc(NC3CCNCC3)n(C)c2=O)cc1 [Example 53, 2-fluoro-4-[5-(4-methoxy-phenyl)-1-methyl-6-oxo-2-(piperidin-4-ylamino)-1,6-dihydro-pyrimidin-4-yl]-benzonitrile]
12 | < 100 | COc1ccc(-c2c(-c3ccc(C#N)c(F)c3)nc(N(C)C[C@H]3CCNC3)n(C)c2=O)cc1 [Example 54, 2-fluoro-4-[5-(4-methoxy-phenyl)-1-methyl-2-(methyl-(3S)-pyrrolidin-3-ylmethyl-amino)-6-oxo-1,6-dihydro-pyrimidin-4-yl]-benzonitrile]
13 | < 100 | CN(C)c1ccc(-c2c(-c3ccc(C#N)c(F)c3)nc(N3CCC(N)CC3)n(C)c2=O)cn1 [Example 57, 4-[2-(4-amino-piperidin-1-yl)-5-(6-dimethylamino-pyridin-3-yl)-1-methyl-6-oxo-1,6-dihydro-pyrimidin-4-yl]-2-fluoro-benzonitrile]
14 | < 100 | CNC1CCN(c2nc(-c3ccc(C#N)c(F)c3)c(-c3ccc(OC)nc3)c(=O)n2C)CC1 [Example 58, 2-fluoro-4-[5-(6-methoxy-pyridin-3-yl)-1-methyl-2-(4-methylamino-piperidin-1-yl)-6-oxo-1,6-dihydro-pyrimidin-4-yl]-benzonitrile]
15 | < 100 | CN(C)c1ccc(-c2c(-c3ccc(C#N)c(F)c3)nc(N3CCC(N)CC3)n(C)c2=O)cc1 [Example 59, 4-[2-(4-amino-piperidin-1-yl)-5-(4-dimethylamino-phenyl)-1-methyl-6-oxo-1,6-dihydro-pyrimidin-4-yl]-2-fluoro-benzonitrile]
16 | < 100 | Cn1c(N2CCC(N)CC2)nc(-c2ccc(C#N)c(F)c2)c(-c2ccc(N3CCCC3)nc2)c1=O [Example 60, 4-[2-(4-amino-piperidin-1-yl)-1-methyl-6-oxo-5-(6-pyrrolidin-1-yl-pyridin-3-yl)-1,6-dihydro-pyrimidin-4-yl]-2-fluoro-benzonitrile]
17 | < 100 | COc1ccc(-c2c(-c3ccc(C#N)cc3)nc(N3CCCNCC3)n(C)c2=O)cn1 [Example 62]
18 | < 100 | CN(C)c1ccc(-c2c(-c3ccc(C#N)c(F)c3)nc(N3CCCNCC3)n(C)c2=O)cn1 [Example 63, 4-[2-[1,4]diazepan-1-yl-5-(6-dimethylamino-pyridin-3-yl)-1-methyl-6-oxo-1,6-dihydro-pyrimidin-4-yl]-2-fluoro-benzonitrile]
19 | < 100 | COc1ccc(-c2c(-c3ccc(C#N)c(F)c3)nc(N3CC(N)C3)n(C)c2=O)cc1 [Example 64, 4-[2-(3-amino-azetidin-1-yl)-5-(4-methoxy-phenyl)-1-methyl-6-oxo-1,6-dihydro-pyrimidin-4-yl]-2-fluoro-benzonitrile]
20 | < 100 | CNC1CCN(c2nc(-c3ccc(C#N)c(F)c3)c(-c3ccc4nn(C)cc4c3)c(=O)n2C)CC1 [Example 65, 2-fluoro-4-[1-methyl-2-(4-methylamino-piperidin-1-yl)-5-(2-methyl-2H-indazol-5-yl)-6-oxo-1,6-dihydro-pyrimidin-4-yl]-benzonitrile]
21 | < 100 | Cn1cc2cc(-c3c(-c4ccc(C#N)c(F)c4)nc(N4CCCNCC4)n(C)c3=O)ccc2n1 [Example 66, 4-[2-[1,4]diazepan-1-yl-1-methyl-5-(2-methyl-2H-indazol-5-yl)-6-oxo-1,6-dihydro-pyrimidin-4-yl]-2-fluoro-benzonitrile]
22 | < 100 | CN(C)c1ccc(-c2c(-c3ccc(C#N)cc3)nc(N3CCCNCC3)n(C)c2=O)cn1 [Example 67, 4-[2-[1,4]diazepan-1-yl-5-(6-dimethylamino-pyridin-3-yl)-1-methyl-6-oxo-1,6-dihydro-pyrimidin-4-yl]-benzonitrile]
23 | < 100 | Cn1c(N2CCC(N)CC2)nc(-c2ccc(C#N)c(F)c2)c(-c2ccc(N3CCOCC3)nc2)c1=O [Example 68, 4-[2-(4-amino-piperidin-1-yl)-1-methyl-5-(6-morpholin-4-yl-pyridin-3-yl)-6-oxo-1,6-dihydro-pyrimidin-4-yl]-2-fluoro-benzonitrile]
24 | < 100 | COc1ccc(-c2c(-c3ccc(C#N)c(F)c3)nc(N3CC(CN)C3)n(C)c2=O)cc1 [Example 69, 4-[2-(3-aminomethyl-azetidin-1-yl)-5-(4-methoxy-phenyl)-1-methyl-6-oxo-1,6-dihydro-pyrimidin-4-yl]-2-fluoro-benzonitrile]
25 | < 100 | CNCC1CN(c2nc(-c3ccc(C#N)c(F)c3)c(-c3ccc(OC)cc3)c(=O)n2C)C1 [Example 70, 2-fluoro-4-[5-(4-methoxy-phenyl)-1-methyl-2-(3-methylaminomethyl-azetidin-1-yl)-6-oxo-1,6-dihydro-pyrimidin-4-yl]-benzonitrile]
26 | < 100 | CN(C)C1CCN(c2nc(-c3ccc(C#N)c(F)c3)c(-c3ccc4nn(C)cc4c3)c(=O)n2C)CC1 [Example 71, 4-[2-(4-dimethylamino-piperidin-1-yl)-1-methyl-5-(2-methyl-2H-indazol-5-yl)-6-oxo-1,6-dihydro-pyrimidin-4-yl]-2-fluoro-benzonitrile]
27 | < 100 | CN(C)C1CCN(c2nc(-c3ccc(C#N)c(F)c3)c(-c3ccc4c(cnn4C)c3)c(=O)n2C)CC1 [Example 72, 4-[2-(4-dimethylamino-piperidin-1-yl)-1-methyl-5-(1-methyl-1H-indazol-5-yl)-6-oxo-1,6-dihydro-pyrimidin-4-yl]-2-fluoro-benzonitrile]
28 | < 100 | Cn1c(N2CCC(N)CC2)nc(-c2ccc(C#N)c(F)c2)c(-c2ccc3[nH]ccc3c2)c1=O [Example 73, 4-[2-(4-amino-piperidin-1-yl)-5-(1H-indol-5-yl)-1-methyl-6-oxo-1,6-dihydro-pyrimidin-4-yl]-2-fluoro-benzonitrile]
29 | < 100 | Cn1c(N2CCC(N)CC2)nc(-c2ccc(C#N)c(F)c2)c(-c2ccc3ccn(C)c3c2)c1=O [Example 76, 4-[2-(4-amino-piperidin-1-yl)-1-methyl-5-(1-methyl-1H-indol-6-yl)-6-oxo-1,6-dihydro-pyrimidin-4-yl]-2-fluoro-benzonitrile]
30 | < 100 | Cn1c(N2CCC(N)CC2)nc(-c2ccc(C#N)c(F)c2)c(-c2ccc3cn[nH]c3c2)c1=O [Example 77, 4-[2-(4-amino-piperidin-1-yl)-5-(1H-indazol-6-yl)-1-methyl-6-oxo-1,6-dihydro-pyrimidin-4-yl]-2-fluoro-benzonitrile]

Row | Structure (SMILES) | IC50 [nM]
31 | COc1ccc(-c2c(-c3ccc(C#N)c(F)c3)nc(N(C)C3CCNCC3)n(C)c2=O)cc1 [Example 55, 2-fluoro-4-[5-(4-methoxy-phenyl)-1-methyl-2-(methyl-piperidin-4-yl-amino)-6-oxo-1,6-dihydro-pyrimidin-4-yl]-benzonitrile] | < 100
32 | COc1ccc(-c2c(-c3ccc(C#N)c(F)c3)nc(N3CCCNCC3)n(C)c2=O)cn1 [Example 61, 4-[2-[1,4]diazepan-1-yl-5-(6-methoxy-pyridin-3-yl)-1-methyl-6-oxo-1,6-dihydro-pyrimidin-4-yl]-2-fluoro-benzonitrile] | < 100
